Consider 10 compounds from article PMC2656571 (Journal of medicinal chemistry, 2008).

Common to all, as to type: cell-based
One data set deals with MT-2 cells. The data set can be described thus: In vitro cytotoxicity on MT-2 cells. As to conditions: human.
In the next data set the test system is HIV-1 IIIB. The data set can be described thus: Inhibition of HIV-1 IIIB replication in MT-2 cells. Particulars: CC50 (MT-2 cells) / EC50 (p24 production).
For data set [1], the system named is HIV-1-mediated cell-cell fusion. Nature of the data set: HIV-1-mediated cell-cell fusion. As to conditions: data not shown.
The test system of the next data set is HIV-1. The data set can be described thus: HIV-1-mediated cytopathic effect. As to conditions: data not shown. A general note: Damage to the host cells serves as the signal in cytopathic effect assays.

In the data set with MT-2 cells, `O=C(O)c1cc(-n2cccc2)ccc1O` [Compound A2, N-(3-Carboxy-4-hydroxy)phenylpyrrole] displayed a CC50 at 4 days above 493 µM. In addition, in the data set on HIV-1 IIIB, the “SI (selectivity index, CC50/EC50)” value is above 50.99. `O=C(O)c1ccc(-n2cccc2)cc1` [Compound A6, N-(4-Carboxy)phenylpyrrole] showed a CC50 at 4 days in the data set on MT-2 cells above 535 µM. In addition, the “SI (selectivity index, CC50/EC50)” value with HIV-1 IIIB is reported as above 7.72. Taken in the same sequence, the figures for `O=C(O)Cc1ccc(-n2cccc2)cc1` [Compound A7, N-(4-Carboxymethene)phenylpyrrole] were above 498 µM and above 1.34. Taken in the same sequence, the figures for `O=C(O)c1ccc(Cn2cccc2)cc1` [Compound A9, N-(4-Carboxy)benzylpyrrole] were above 498 µM and above 7.78. For the compound `O=C(O)Cc1ccc(Cn2cccc2)cc1` [Compound A10, N-(4-Carboxymethene)benzylpyrrole], the CC50 at 4 days in the data set on MT-2 cells is above 465 µM. For `Cc1ccc(C)n1-c1ccc(O)c(C(=O)O)c1` [Compound A12, N-(3-Carboxy-4-hydroxy)phenyl-2,5-dimethylpyrrole], in data set [1], the “Inhibition of HIV-1-mediated cell-cell fusion” value was “effectively inhibited”. In addition, in the data set with HIV-1, the “Inhibition of HIV-1-mediated cytopathic effect (CPE)” value is “effectively inhibited”. `Cc1ccc(C)n1-c1ccc(Cl)cc1C(=O)O` [Compound A18, N-(4-Chloro-2-carboxy)phenyl-2,5-dimethylpyrrole]: in the data set with MT-2 cells, the half-maximal cytotoxic concentration (CC50) at 4 days is above 400 µM. The “SI (selectivity index, CC50/EC50)” value in the data set with HIV-1 IIIB is on record as above 46.73. Regarding `Cc1ccc(C)n1Cc1ccc(C(=O)O)cc1` [Compound A19, N-(4-Carboxy)benzyl-2,5-dimethylpyrrole], the 50% cytotoxic concentration (CC50) at 4 days with MT-2 cells was 299 µM. For the same compound, the “SI (selectivity index, CC50/EC50)” value in the data set with HIV-1 IIIB is 19.20. Consider `O=C(O)c1ccc(-c2noc(CCl)n2)cc1` [Compound B6, 3-(4-Carboxy)phenyl-5-chloromethyl-1,2,4-oxadiazole], for which the “SI (selectivity index, CC50/EC50)” value in the data set on HIV-1 IIIB is above 16. The same measure, in the same setting: under `O=C(O)c1ccc(-c2noc(C(F)(F)F)n2)cc1` [Compound B10, 3-(4-Carboxyphenyl)-5-(trifluoromethyl)-1,2,4-oxadiazole] stands above 16.

The term CC50 denotes the concentration giving 50% cytotoxicity.
